Measured values reported in US20220380374A1, “1,4-DIHYDROBENZO[D]PYRAZOLO[3,4-F][1,3]DIAZEPINE DERIVATIVES AND RELATED COMPOUNDS AS LRRK2, NUAK1 AND/OR TYK2 KINASE MODULATORS FOR THE TREATMENT OF E.G. AUTOIMMUNE DISEASE” (Origenis GMBH, priority 2019, published 2022).

Experiments:
[1] = biological target: T1, wt human TYK2, catalytic site (Homo sapiens, UniProt P29597); test: HTRF KinEASE assay, TYK2; assay type: biochemical; conditions: 1 μM ATP; read-out: IC50, inhibitory activity toward TYK2
T1 construct: 2 nM wt human TYK2, catalytic site (SignalChem/CAN); purchased SignalChem/CAN
T1 sequence (P29597 897-1176 limits assumed): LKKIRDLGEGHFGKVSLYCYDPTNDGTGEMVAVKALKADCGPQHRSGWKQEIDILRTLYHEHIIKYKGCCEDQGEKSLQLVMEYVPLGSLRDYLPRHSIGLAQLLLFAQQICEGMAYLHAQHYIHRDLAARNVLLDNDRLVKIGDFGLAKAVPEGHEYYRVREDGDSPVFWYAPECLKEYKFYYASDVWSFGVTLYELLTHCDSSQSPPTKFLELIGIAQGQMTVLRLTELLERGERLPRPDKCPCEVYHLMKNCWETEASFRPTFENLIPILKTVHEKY
In short: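 2 nM wt human TYK2 catalytic domain with 1 μM biotinylated TK substrate and 1 μM ATP in 1× kinase buffer was incubated ≥30 min at room temperature. Antibody and streptavidin-XL665 were added, and HTRF emission ratios were read after 60 min.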

[2] = biological target: T2, wt human NUAK1, full length (Homo sapiens, UniProt O60285); test: TR-FRET LanthaScreen Eu Kinase Binding Assay, NUAK1; conditions: 5 nM Kinase Tracer 236; read-out: IC50, inhibitory activity toward NUAK1
T2 construct: 8 nM wt human NUAK1, full length (ThermoFisher/USA); purchased ThermoFisher/USA
T2 sequence (O60285 1-661): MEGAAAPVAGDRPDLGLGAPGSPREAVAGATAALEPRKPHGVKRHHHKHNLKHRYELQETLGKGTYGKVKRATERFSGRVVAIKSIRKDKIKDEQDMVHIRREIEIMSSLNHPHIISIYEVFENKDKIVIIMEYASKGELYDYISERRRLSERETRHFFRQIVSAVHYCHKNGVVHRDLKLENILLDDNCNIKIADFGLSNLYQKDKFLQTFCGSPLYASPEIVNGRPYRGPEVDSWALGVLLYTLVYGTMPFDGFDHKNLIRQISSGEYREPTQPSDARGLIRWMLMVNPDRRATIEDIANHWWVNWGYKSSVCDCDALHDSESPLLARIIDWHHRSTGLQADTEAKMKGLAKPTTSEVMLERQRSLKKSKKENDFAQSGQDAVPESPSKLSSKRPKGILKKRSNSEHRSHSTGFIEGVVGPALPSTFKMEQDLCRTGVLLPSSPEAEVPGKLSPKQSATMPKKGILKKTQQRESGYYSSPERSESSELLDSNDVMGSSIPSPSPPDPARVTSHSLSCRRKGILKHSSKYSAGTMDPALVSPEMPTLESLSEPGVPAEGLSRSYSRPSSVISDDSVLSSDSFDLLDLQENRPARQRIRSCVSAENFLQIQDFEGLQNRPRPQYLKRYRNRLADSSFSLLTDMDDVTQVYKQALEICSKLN
In short: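 TR-FRET tracer-displacement binding with 8 nM full-length wild-type human NUAK1, 2 nM Eu-anti-His antibody and 5 nM Kinase Tracer 236 in 1× Kinase Buffer A (final). Compound, kinase/antibody and tracer incubated 1 h at room temperature; emission ratios analysed per kit protocol.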

| Compound | IC50 [1] [nM] | IC50 [2] [nM] |
| --- | --- | --- |
| CC(C)(O)c1ccc2c(c1)NC(c1c(F)cccc1F)=Nc1cn[nH]c1-2 [Compound 98, 2-(5-(2,6-difluorophenyl)-1,6-dihydrobenzo[d]pyrazolo[3,4-f][1,3]diazepin-8-yl)propan-2-ol] | 10 to 100 | 10 to 100 |
| Fc1cc2c(cc1OC1CCOCC1)N=C(c1c(Cl)cccc1Cl)Nc1c[nH]nc1-2 [Compound 222, 5-(2,6-dichlorophenyl)-9-fluoro-8-((tetrahydro-2H-pyran-4-yl)oxy)-2,4-dihydrobenzo[d]pyrazolo[3,4-f][1,3]diazepine] | < 10 | 100 to 1000 |
| COC(=O)Nc1ccc2c(c1)-c1[nH]ncc1NC(c1c(F)cccc1F)=N2 [Compound 165, methyl(5-(2,6-difluorophenyl)-1,4-dihydrobenzo[d]pyrazolo[3,4-f][1,3]diazepin-9-yl)carbamate] | 100 to 1000 | < 10 |
| COc1cccc(F)c1C1=Nc2cn[nH]c2-c2ccccc2N1 [Compound 114, 5-(2-fluoro-6-methoxyphenyl)-1,6-dihydrobenzo[d]pyrazolo[3,4-f][1,3]diazepine] | 100 to 1000 | 100 to 1000 |
| Nc1ncc2c(n1)N=C(c1c(F)cccc1F)Nc1c[nH]nc1-2 [Compound 218, 5-(2,6-difluorophenyl)-2,4-dihydropyrazolo[4,3-d]pyrimido[5,4-f][1,3]diazepin-8-amine] | 10 to 100 | 10 to 100 |
| Cc1cc(F)c2c(c1)-c1[nH]ncc1NC(c1c(F)cccc1F)=N2 [Compound 138, 5-(2,6-difluorophenyl)-7-fluoro-9-methyl-1,4-dihydrobenzo [d]pyrazolo[3,4-f][1,3]diazepine] | 100 to 1000 | 10 to 100 |
| NC(=O)c1ccc2c(c1)-c1[nH]ncc1NC(c1c(F)cccc1F)=N2 [Compound 93, 5-(2,6-difluorophenyl)-1,4-dihydrobenzo[d]pyrazolo[3,4-f][1,3]diazepine-9-carboxamide] | 100 to 1000 | 10 to 100 |
| Fc1cccc(Cl)c1C1=Nc2ccc(Cl)cc2-c2[nH]ncc2N1 [Compound 37, 9-chloro-5-(2-chloro-6-fluorophenyl)-1,4-dihydrobenzo[d]pyrazolo[3,4-f][1,3]diazepine] | 100 to 1000 | 100 to 1000 |
| OCc1ccc2c(c1)-c1[nH]ncc1N=C(c1c(F)cccc1F)N2 [Compound 50, (5-(2,6-difluorophenyl)-1,6-dihydrobenzo[d]pyrazolo[3,4-f][1,3]diazepin-9-yl)methanol] | 100 to 1000 | 10 to 100 |
| O=C(NC1CCOCC1)c1ccc2c(n1)N=C(c1c(F)cccc1F)Nc1cn[nH]c1-2 [Compound 105, 5-(2,6-difluorophenyl)-N-(tetrahydro-2H-pyran-4-yl)-1,4-dihydropyrazolo[4,3-d]pyrido[3,2-f][1,3]diazepine-8-carboxamide] | 10 to 100 | 100 to 1000 |
| COc1ccc2c(c1)-c1[nH]ncc1N=C(c1c(F)cccc1Cl)N2 [Compound 39, 5-(2-chloro-6-fluorophenyl)-9-methoxy-1,6-dihydrobenzo[d]pyrazolo[3,4-f][1,3]diazepine] | 100 to 1000 | 100 to 1000 |
| Fc1cc2c(cc1-c1ccccc1)N=C(c1c(F)cccc1F)Nc1c[nH]nc1-2 [Compound 231, 5-(2,6-difluorophenyl)-9-fluoro-8-phenyl-2,4-dihydrobenzo[d]pyrazolo[3,4-f][1,3]diazepine] | 10 to 100 | 10 to 100 |
| Fc1cccc(F)c1C1=Nc2cnc(OC(F)F)cc2-c2n[nH]cc2N1 [Compound 197, 9-(difluoromethoxy)-5-(2,6-difluorophenyl)-2,4-dihydropyrazolo[4,3-d]pyrido[4,3-f][1,3]diazepine] | 10 to 100 | 10 to 100 |
| Cc1ccc2c(c1)-c1n[nH]cc1NC(c1c(F)ccc(C(F)(F)F)c1F)=N2 [Compound 217, 5-(2,6-difluoro-3-(trifluoromethyl)phenyl)-9-methyl-2,4-dihydrobenzo[d]pyrazolo[3,4-f][1,3]diazepine] | 100 to 1000 | 100 to 1000 |
| CCc1ccc2c(c1)-c1[nH]ncc1N=C(c1c(F)cccc1Cl)N2 [Compound 45, 5-(2-chloro-6-fluorophenyl)-9-ethyl-1,6-dihydrobenzo[d]pyrazolo[3,4-f][1,3]diazepine] | 100 to 1000 | 100 to 1000 |
| Fc1cc2c(cc1-c1cccnn1)N=C(c1c(F)cccc1Cl)Nc1c[nH]nc1-2 [Compound 228, 5-(2-chloro-6-fluorophenyl)-9-fluoro-8-(pyridazin-3-yl)-2,4-dihydrobenzo[d]pyrazolo[3,4-f][1,3]diazepine] | < 10 | 10 to 100 |
